Assay results: PMC10650714, “Double Attack to Oxidative Stress in Neurodegenerative Disorders: MAO-B and Nrf2 as Elected Targets” (Molecules, 2023)
Several values for one entry are separate records, joined by “and”; a condition that tells them apart may be missing. Identical values can stand only once. Entries after “also recorded” stand apart in the source; their conditions may differ. Like-named read-outs stand apart in the source and are kept apart here.

Assays:
[1] = target: T1, recombinant hMAO-B (Homo sapiens, UniProt P27338); assay: hMAO-B activity assay (kynuramine, fluorimetric); assay type: biochemical; settings: for SI (selectivity index): calculated as hMAO-A Ki/hMAO-B Ki; for mechanism of hMAO-B inhibition: double reciprocal plots / global fit
T1 construct: purchased Fluka-Sigma-Aldrich s.r.l; (Italy); host or cells: Baculovirus infected BT1 cells
T1 sequence (P27338 1-520): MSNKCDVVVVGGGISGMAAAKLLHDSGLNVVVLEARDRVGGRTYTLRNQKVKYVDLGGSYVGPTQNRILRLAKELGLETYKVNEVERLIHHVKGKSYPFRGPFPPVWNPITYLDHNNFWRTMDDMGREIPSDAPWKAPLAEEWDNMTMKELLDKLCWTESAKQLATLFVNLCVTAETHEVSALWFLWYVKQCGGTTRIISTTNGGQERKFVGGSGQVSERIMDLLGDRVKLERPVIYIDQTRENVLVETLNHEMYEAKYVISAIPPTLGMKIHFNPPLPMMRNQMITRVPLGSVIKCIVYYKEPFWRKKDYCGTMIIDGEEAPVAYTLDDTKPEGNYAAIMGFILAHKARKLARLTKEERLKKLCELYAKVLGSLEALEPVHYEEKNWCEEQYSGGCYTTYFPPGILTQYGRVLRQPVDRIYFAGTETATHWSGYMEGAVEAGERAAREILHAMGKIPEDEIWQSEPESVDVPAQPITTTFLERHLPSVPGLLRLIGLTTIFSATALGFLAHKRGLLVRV
Protocol: Human recombinant hMAO-A and hMAO-B expressed in Baculovirus infected BT1 cells (5 mg/mL) and horseradish peroxidases were purchased from Fluka-Sigma-Aldrich s.r.l. (Italy). A Cary Eclipse fluorimeter (Varian Inc., Palo Alto, CA, USA) was used for fluorescence measurements. […] At first, the peroxidase-coupled continuous assay that detect the H2O2 generation rate was considered. It uses the Amplex Red reagent as the fluorogenic substrate for horseradish peroxidase.
By applying this method, hMAO activity assays were performed in K/Pi 0.1 M, EDTA 1 mM (total volume: 200 μL; pH 7.4, T = 37 °C), in the presence and in absence of various concentrations of the different compounds (0.2–20 μM and 2–50 μM in the case of hMAO–B and hMAO-A, respectively).
MAOs stock solutions were diluted with assay buffer in the presence or absence of the tested compound to obtain a final concentration of 0.005 mg/mL for MAO-A and 0.010 mg/mL for MAO-B; then, kynuramine (10–300 μM final concentration) was added to the assay solution. After 45–60 min of incubation at 37 °C, the reaction was stopped by the addition of 2 M NaOH (80 μL) and 480 μL of distilled water. Kynuramine deaminated by MAO spontaneously cyclizes to provide 4-hydroxyquinoline, the amount of which was determined by the fluorescence intensity of the peak of its emission spectra (λexc = 330 nm and λem 330–530 nm). Then, the rate of reaction was calculated using a specific calibration curve (in the presence of the same amount of the tested compound) built with the standard 4-hydroxyquinoline.
Under these experimental conditions, the Michaelis–Menten equation for rate of reaction, can be simplified as follows: V ≈ (Vmax/KM) [E]0[S]0 [49]. In the presence of an inhibitor, one or both the kinetic parameters, KM and Vmax, might be affected by its presence, depending on the inhibition mechanism. In particular, in the presence of a reversible inhibitor, both the kinetic parameters could be affected, and the apparent kinetic parameter would then become: KM I = KM,0 (1 + [I]/Ki)/(1 + [I]/(αKi)), and VmaxI = Vmax0/(1 + [I]/(αKi)), where α is the factor indicating how much the dissociation constant of the enzyme-substrate-I complex is different from that of the enzyme–I complex (also named Ki). Consequently, the ratio of the initial rate of reaction in the absence (Vo) and in the presence (VI) of the tested compound (Vo/VI) can be simplified to the ratio of (Vmax/KM)o/(Vmax/KM)I ≈ (1 + [I]/Ki).
To study the mechanism of inhibition, the steady-state kinetic parameters (Vmax and Km) of MAO-A and MAO-B were determined by performing experiments at different substrate concentrations and in the absence and presence of different concentrations of the tested compound. Vmax and Km were calculated by fitting the Michaelis–Menten equation to the experimental data (initial rate of reactions vs. substrate concentrations), with Sigma Plot software, version 9.0 (Jandel Scientific, San Rafael, CA, USA).

[2] = test system: ROS production in HepG2 cells; assay: Intracellular ROS generation rate (DCF-DA); assay type: cell-based, human; settings: 5 µM, 30 min; for ROS generation rate (oxidation rate of DCF): both in the presence and absence of antimycin A (10 µM); for effect on antimycin A-induced ROS: antimycin A 10 µM
Protocol: Thus, on the basis of the hMAO-B inhibitory potency and on the Nrf2 nuclear translocation results, the most promising compounds 2 and 3 were chosen for the evaluation of their antioxidant activity in the human hepatic HepG2 cells, a valuable cellular system to assess antioxidant properties of the compounds [43, 44]. CAPE and pioglitazone were also tested as reference compounds. HepG2 cells were pre-loaded with dichlorofluorescein diacetate (DCF-DA), a fluorescent probe to detect ROS generation. […] Immediately, antimycin A (10 µM), an inhibitor of the complex III of the mitochondrial electron transport chain, was also added as an ROS inducer. The oxidation rate of DCF, that is, the generation rate of ROS, was detected for 30 min, and for each sample, the corresponding control was also run.
HepG2 cells (human hepatocellular carcinoma) were purchased from the American Type Culture Collection (ATCC HB-8065). Cells were grown in MEM (M0894, Merck Life Sciences S.r.l., Milan, Italy) supplemented with 2.2 g/L NaHCO3 (S5761, Merck Life Sciences S.r.l., Milan, Italy), 100 U/mL penicillin, 100 μg/mL streptomycin and 0.25 μg/mL amphotericin B (A5955, Merck Life Sciences S.r.l., Milan, Italy) and 10% foetal calf serum (F7524, Merck Life Sciences S.r.l., Milan, Italy). Cells were cultured at 37 °C in a humidified atmosphere incubator containing 5% carbon dioxide in air.
The intracellular production of ROS was detected via a fluorometric method using 2′,7′-dichlorofluorescein diacetate (D6883, Merck Life Sciences S.r.l., Milan, Italy) as probe. HepG2 cells (6 × 10^3/well) were seeded into a 96-well culture plate in 200 µL of a complete growth medium and incubated for 48 h in standard conditions. The medium was then removed, and cells were washed with 5 mM of PBS–glucose. Then, cells were loaded with 10 μM of 2′,7′-dichlorofluorescein diacetate in 5 mM of PBS–glucose at 37 °C in the dark for 20 min, washed with 5 mM of PBS–glucose, treated with the test compounds at indicated concentrations in 5 mM of PBS–glucose and then analysed. Fluorescence intensity was recorded for 30 min at λemx = 485 nm and λem = 527 nm, using a Victor X3 Multilabel plate reader (Perkin Elmer). The rate of ROS generation was calculated relative to untreated cells (controls) after subtraction of autofluorescence value. Results were presented as the mean values of at least three independent experiments performed with six replicates.

| mechanism of hMAO-B inhibition [1] | Ki ([1]; global fit analysis, mixed inhibition model, read-out: KEI (inhibition constant for the free enzyme)) [µM] | Ki ([1]; kynuramine [S] = 10 µM, pH 7.4, 37 °C, mean ± S.D., read-out: hMAO-B Ki) | Ki ([1]; read-out: hMAO-B Ki) [µM] | Structure (SMILES) | SI (selectivity index) [1] | Ki ([1]; hMAO-B Ki, kynuramine [S] = 10 µM, pH 7.4, 37 °C, mean ± S.D.) [µM] | ROS generation rate (oxidation rate of DCF) [2] | effect on antimycin A-induced ROS [2] |
| --- | --- | --- | --- | --- | --- | --- | --- | --- |
|  |  |  |  | O=C(/C=C/c1ccc(O)c(O)c1)OCCc1ccccc1 [CAPE, caffeic acid phenethyl ester, reference compound] | 6.7 | 1.8 ± 0.2 | strongly reducing the oxidation rate of DCF | almost abolish the effect of antimycin A stimulus |
| mixed inhibition | 0.45 ± 0.8 | 0.5 µM and 0.53 µM | 0.53 | O=C(/C=C/c1ccc(O)c(O)c1)Oc1ccc(CC2SC(=O)NC2=O)cc1 (stereo not shown) [Compound 2, 4-((2,4-Dioxothiazolidin-5-yl)methyl)phenyl (E)-3-(3,4-Dihydroxyphenyl)acrylate] | 66 |  | highest antioxidant potency; also recorded: significantly reduced cellular ROS content | almost abolish the effect of antimycin A stimulus |
| selective and competitive inhibitor |  |  |  | CCc1ccc(CCOc2ccc(CC3SC(=O)NC3=O)cc2)nc1 (stereo not shown) [Pioglitazone, reference compound] |  |  | did not show any effect on the ROS generation rate |  |
